From patent US9487762B1, “Method and system for producing triterpenes” (University of Kentucky Research Foundation, priority 2012, dated 2016)

Legend:
[1] = test system: six B. braunii SMT-like genes (TMT-1, -2, -3, SMT-1, -2, -3); assay: In vitro methyltransferase assay with sterol acceptor substrates; type: biochemical, Botryococcus braunii race B; settings: 2 mM acceptor substrate, yeast microsomes, data not shown
Experimental: (§1) The various B. braunii SMT-like genes or empty vector control were expressed in TN-7 yeast and grown in 100 ml selection media for 3 days, after which microsomes were prepared according to the methods of Pompon et al. (27). Enzyme assays contained 50 mM HEPES, pH 7.5, either 0.01% (TMT-3) or 0.1% (all other samples) DHPC, 2 mM acceptor substrate (botryococcene, squalene, C32-botryococcene, C32-squalene, cycloartenol, zymosterol, or lanosterol), 50 μM 3H-SAM (˜150 dpm/pmole), 2 μl microsomes, in 100 μl total volume. Assays were set up by first combining everything except 3H-SAM and microsomes and treating with a sonicating water bath (Branson 2510) for ˜1 min. until the solution became cloudy due to micelle formation, after which 3H-SAM and microsomes were added and the reaction incubated at 37° C. for 5 min. Reactions were stopped by adding an equal volume of 10% (w/v) KOH in methanol, followed by extraction of hydrocarbon products with 400 μl n-hexane. An aliquot of the organic phase was spotted on silica TLC plates and developed with n-hexane:MTBE (25:1). Triterpenes were visualized with iodine vapor and the corresponding zones were scraped and subject to scintillation analysis.
None of the six enzymes was able to methylate C32 botryococcene or C32 squalene, possible intermediates to the tetramethylated forms (see below).

SMT-1 = target: T1, SMT-1 (Botryococcus braunii, UniProt H2E7T8); assay: In vitro methyltransferase assay, yeast microsomes, 3H-SAM; type: biochemical, Botryococcus braunii race B; settings: SMT-1 microsomes; 2 mM acceptor substrate, 50 μM 3H-SAM, 0.1% DHPC, 37° C., 5 min
T1 construct: led to the identification of six full-length ORFs; made in house; host or cells: Saccharomyces cerevisiae TN7 (TN-7), microsomal preparation
T1 sequence (H2E7T8 1-389): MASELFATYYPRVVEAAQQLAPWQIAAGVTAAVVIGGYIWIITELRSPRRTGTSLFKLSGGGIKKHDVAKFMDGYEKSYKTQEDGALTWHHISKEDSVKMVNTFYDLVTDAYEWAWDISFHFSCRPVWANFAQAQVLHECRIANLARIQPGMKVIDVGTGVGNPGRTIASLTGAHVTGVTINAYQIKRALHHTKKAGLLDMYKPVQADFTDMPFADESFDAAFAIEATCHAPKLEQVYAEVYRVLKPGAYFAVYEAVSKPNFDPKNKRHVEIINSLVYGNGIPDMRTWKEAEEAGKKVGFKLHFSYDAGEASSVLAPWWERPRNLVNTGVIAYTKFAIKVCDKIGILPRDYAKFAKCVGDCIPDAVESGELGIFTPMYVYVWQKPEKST
Experimental: as §1
(§2) To verify the in vivo results with in vitro determinations, the six SMT-like genes were expressed in yeast and microsomal preparations used as the source of the enzymes in assays containing 3H-SAM and either botryococcene or squalene as substrates.

SMT-2 = target: T2, SMT-2 (Botryococcus braunii, UniProt H2E7T9); assay: as above; type: biochemical, Botryococcus braunii race B; settings: SMT-2 microsomes; 2 mM acceptor substrate, 50 μM 3H-SAM, 0.1% DHPC, 37° C., 5 min
T2 construct: led to the identification of six full-length ORFs; made in house; host or cells: Saccharomyces cerevisiae TN7 (TN-7), microsomal preparation
T2 sequence (H2E7T9 1-389): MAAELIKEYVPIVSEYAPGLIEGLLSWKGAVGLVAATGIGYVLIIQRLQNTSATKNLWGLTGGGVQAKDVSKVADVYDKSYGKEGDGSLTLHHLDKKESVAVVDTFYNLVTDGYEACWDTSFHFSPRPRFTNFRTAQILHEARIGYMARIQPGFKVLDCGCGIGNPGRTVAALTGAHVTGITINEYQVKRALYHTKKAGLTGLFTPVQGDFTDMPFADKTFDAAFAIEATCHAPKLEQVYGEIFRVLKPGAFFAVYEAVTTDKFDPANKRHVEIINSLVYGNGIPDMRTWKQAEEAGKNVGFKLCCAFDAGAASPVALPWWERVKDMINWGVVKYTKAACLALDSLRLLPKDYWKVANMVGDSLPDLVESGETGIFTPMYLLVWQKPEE
Experimental: as §1, §2

SMT-3 = target: T3, SMT-3 (Botryococcus braunii, UniProt H2E7U0); assay: as above; type: biochemical, Botryococcus braunii race B; settings: SMT-3 microsomes; 2 mM acceptor substrate, 50 μM 3H-SAM, 0.1% DHPC, 37° C., 5 min
T3 construct: led to the identification of six full-length ORFs; made in house; host or cells: Saccharomyces cerevisiae TN7 (TN-7), microsomal preparation
T3 sequence (H2E7U0 1-392): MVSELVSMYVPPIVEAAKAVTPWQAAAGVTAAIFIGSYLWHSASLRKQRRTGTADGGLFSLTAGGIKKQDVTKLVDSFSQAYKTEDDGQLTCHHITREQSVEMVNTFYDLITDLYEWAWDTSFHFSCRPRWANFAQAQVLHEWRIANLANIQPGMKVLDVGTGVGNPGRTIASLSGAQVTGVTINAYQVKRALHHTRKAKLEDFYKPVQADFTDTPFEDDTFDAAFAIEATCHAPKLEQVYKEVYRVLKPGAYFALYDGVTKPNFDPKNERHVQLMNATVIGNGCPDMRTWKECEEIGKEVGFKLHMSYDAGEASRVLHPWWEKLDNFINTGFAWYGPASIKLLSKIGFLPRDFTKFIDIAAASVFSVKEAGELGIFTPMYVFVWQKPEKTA
Experimental: as §1, §2

TMT-3 [2] = target: T4, TMT-3 (Botryococcus braunii, UniProt H2E7T7); assay: as above; type: biochemical, Botryococcus braunii race B; settings: TMT-3 microsomes; 2 mM acceptor substrate, 50 μM 3H-SAM, 0.01% DHPC, 37° C., 5 min; mean ± S.E.M., n = 3
T4 construct: led to the identification of six full-length ORFs; expressed in transfected cells; host or cells: Saccharomyces cerevisiae TN7 (erg9 insertional mutant) co-expressing B. braunii squalene synthase (BSS) or SSL-1-3m
T4 sequence (H2E7T7 1-379): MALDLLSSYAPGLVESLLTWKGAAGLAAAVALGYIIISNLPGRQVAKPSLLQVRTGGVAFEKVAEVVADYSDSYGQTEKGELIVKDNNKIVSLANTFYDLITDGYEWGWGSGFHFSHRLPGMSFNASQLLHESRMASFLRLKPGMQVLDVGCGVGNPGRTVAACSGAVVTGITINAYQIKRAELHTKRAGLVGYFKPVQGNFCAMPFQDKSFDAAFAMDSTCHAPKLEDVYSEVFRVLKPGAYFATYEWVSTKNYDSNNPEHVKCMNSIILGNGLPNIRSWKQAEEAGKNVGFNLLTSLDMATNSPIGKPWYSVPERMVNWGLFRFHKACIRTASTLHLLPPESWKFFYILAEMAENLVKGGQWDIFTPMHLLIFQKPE
Experimental: as §1, §2

TMT-3 [3] = target: T4, TMT-3; assay: In vivo co-expression in TN7 yeast with triterpene synthase, GC-MS of organic extracts; type: cell-based, Botryococcus braunii race B; settings: TN7 yeast co-expressing TMT-3 and BSS
Excerpt: (§3) Yeast lines previously developed for high level accumulation of squalene and botryococcene were used for evaluating the putative triterpene methyltransferase genes (17,23,24). These lines consist of the TN7 parental strain harboring an insertional mutation in the native yeast squalene synthase gene (ERG9) transformed with expression vectors containing either the full-length Botryococcus squalene synthase (BSS) gene (18) or a fusion of the Botryococcus SSL-1 and SSL-3 genes (functional equivalent of botryococcene synthase) including a sequence encoding for the carboxy-terminal membrane targeting domain of the Botryococcus squalene synthase protein (SSL-1-3m) (17). The various methyltransferase expression vectors were introduced into these two yeast lines using the lithium acetate transformation protocol, followed by selection for complementation of the uracil and leucine auxotrophic growth markers (24). […]
(§4) In brief, 1 ml aliquots of the culture were combined with 1 ml of acetone, mixed vigorously, and incubated at room temperature for 10 min. […] The mixture was then centrifuged briefly at 500 g to separate the phases, and an aliquot of the organic phase (1-3 μl) analyzed by GC-MS with a Varian CP-3800 GC coupled to a Varian Saturn 2200 MS/MS (Varian Medical Systems) using a Supelco SLB-5 ms fused silica capillary column (30 m×0.25 mm×0.25 μm film thickness, Supelco). […]

TMT-1 [4] = target: T5, TMT-1 (Botryococcus braunii, UniProt H2E7T5); assay: as above; type: cell-based, Botryococcus braunii race B; design: led to the identification of six full-length ORFs; made in house; host or cells: Saccharomyces cerevisiae TN7 (TN-7); settings: TN7 yeast co-expressing TMT-1 and BSS
T5 sequence (H2E7T5 1-378): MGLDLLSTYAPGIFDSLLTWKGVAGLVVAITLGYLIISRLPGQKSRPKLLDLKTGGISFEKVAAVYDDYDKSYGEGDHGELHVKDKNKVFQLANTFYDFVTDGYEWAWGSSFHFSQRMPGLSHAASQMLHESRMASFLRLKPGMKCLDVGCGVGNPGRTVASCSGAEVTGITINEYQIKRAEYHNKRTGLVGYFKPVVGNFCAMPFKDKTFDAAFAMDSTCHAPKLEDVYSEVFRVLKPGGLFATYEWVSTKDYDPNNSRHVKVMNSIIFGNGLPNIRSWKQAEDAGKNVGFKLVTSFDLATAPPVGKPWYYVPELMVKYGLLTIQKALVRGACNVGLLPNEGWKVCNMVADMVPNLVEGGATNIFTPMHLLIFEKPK
Excerpt: as §3, §4

TMT-2 [5] = target: T6, TMT-2 (Botryococcus braunii, UniProt H2E7T6); assay: as above; type: cell-based, Botryococcus braunii race B; design: led to the identification of six full-length ORFs; made in house; host or cells: Saccharomyces cerevisiae TN7 (TN-7); settings: TN7 yeast co-expressing TMT-2 and BSS
T6 sequence (H2E7T6 1-378): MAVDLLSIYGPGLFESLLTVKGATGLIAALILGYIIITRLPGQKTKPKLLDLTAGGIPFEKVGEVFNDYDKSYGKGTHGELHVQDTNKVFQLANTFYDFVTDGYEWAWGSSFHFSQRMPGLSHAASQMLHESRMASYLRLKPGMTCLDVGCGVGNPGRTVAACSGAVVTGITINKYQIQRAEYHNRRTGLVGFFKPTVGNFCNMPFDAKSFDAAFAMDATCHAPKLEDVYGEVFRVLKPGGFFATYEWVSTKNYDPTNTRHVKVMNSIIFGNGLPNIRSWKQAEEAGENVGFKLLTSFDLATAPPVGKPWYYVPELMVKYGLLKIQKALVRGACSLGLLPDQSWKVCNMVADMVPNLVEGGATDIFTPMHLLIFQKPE
Excerpt: as §3, §4

TMT-1 [6] = target: T5, TMT-1; assay: In vitro methyltransferase assay, yeast microsomes, 3H-SAM; type: biochemical, Botryococcus braunii race B; design: led to the identification of six full-length ORFs; made in house; host or cells: Saccharomyces cerevisiae TN7 (TN-7), microsomal preparation; settings: TMT-1 microsomes; 2 mM acceptor substrate, 50 μM 3H-SAM, 0.1% DHPC, 37° C., 5 min; mean ± S.E.M., n = 3
Experimental: as §1, with “analysis. […]” for “analysis.”

TMT-2 [7] = target: T6, TMT-2; assay: as above; type: biochemical, Botryococcus braunii race B; design: led to the identification of six full-length ORFs; made in house; host or cells: Saccharomyces cerevisiae TN7 (TN-7), microsomal preparation; settings: TMT-2 microsomes; 2 mM acceptor substrate, 50 μM 3H-SAM, 0.1% DHPC, 37° C., 5 min; mean ± S.E.M., n = 3
Experimental: as §1, with “analysis. […]” for “analysis.”

Which “Methylation of the sterol acceptor substrate” value (from here on “Methylation”) [1] does the source give for `CC(C)=CCC[C@@H](C)[C@H]1CC[C@H]2C3=C(CC[C@]12C)[C@@]1(C)CC[C@H](O)C[C@@H]1CC3` [zymosterol] here?
Its value is “none of the six B. braunii SMT-like genes methylated”.

`CC(C)=CCC[C@@H](C)[C@H]1CC[C@@]2(C)C3=C(CC[C@]12C)[C@@]1(C)CC[C@H](O)C(C)(C)[C@@H]1CC3` [lanosterol] was tested. Which “Methylation” value [1] did it give?
Its value is “none of the six B. braunii SMT-like genes methylated”.

How did the “Methylation” value [1] turn out when `CC(C)=CCC[C@@H](C)[C@H]1CC[C@@]2(C)[C@@H]3CC[C@H]4C(C)(C)[C@@H](O)CC[C@@]45C[C@@]35CC[C@]12C` [cycloartenol] was run?
Its value is “none of the six B. braunii SMT-like genes methylated”.

`CC(C)=CCC/C(C)=C/CC/C(C)=C/CC/C=C(\C)CC/C=C(\C)CCC=C(C)C` [squalene] was tested. Which “Enzyme activity (methyl groups transferred to acceptor substrate)” value (from here on “Enzyme activity”) (SMT-1) did it give?
The value was 0 pmol/h/µg.

And the “Enzyme activity” value (SMT-2)?
The value was 0 pmol/h/µg.

What about the “Enzyme activity” value (SMT-3) of the same compound?
Its value is 0 pmol/h/µg.

What about the “Enzyme activity” value (TMT-3 [2]) of the same compound?
The value was 35.4 ± 3.0 pmol/h/µg.

What about the “Share of total accumulating squalene converted to its methyl-derivatives” value (TMT-3 [3]) of the same compound?
The value was “approximately 18%”.

What about the “Share of total squalenes accumulated as methyl-derivatives” value (TMT-1 [4]) of the same compound?
Its value is 63%.

And the “Share of squalenes accumulated as methyl-derivatives” value (TMT-2 [5])?
Its value is 40%.

What about the “Enzyme activity” value (TMT-1 [6]) of the same compound?
The value was 513.7 ± 8.6 pmol/h/µg.

And the “Enzyme activity” value (TMT-2 [7])?
The value was 862.2 ± 59.9 pmol/h/µg.
